What was measured:
Assay in all cases: relative viability (nuclei count vs DMSO), 5 days (fraction); higher = more cells survive
TPCA-1 + Phenformin = compound: C1=CC(=CC=C1C2=CC(=C(S2)NC(=O)N)C(=O)N)F [TPCA-1] + N=C(N)NC(=N)NCCc1ccccc1 [Phenformin] (partner 250 µM)
Procedure, shortened: (§1)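 Lung cancer cell lines were seeded in 1536-well plates and dosed by pin tool the next day, with either a single drug or a fixed anchor-drug dose combined with five library-drug doses (not always all listed) spaced in √10 steps. Five days later, one step fixed the cells and stained their nuclei (final 0.05% Triton X-100, 1% formaldehyde, 1 ug/ml Hoechst), and nuclei were counted on 4× images. Relative viability is the nuclei count in treated wells divided by the count in vehicle wells, and each value is the median of duplicate plates.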

[1] = compound: C[C@]12O[C@H](C[C@]1(O)CO)n1c3ccccc3c3c4c(c5c6ccccc6n2c5c31)CNC4=O [Lestaurtinib] + Cc1cc(Nc2cc(N3CCN(C)CC3)nc(Sc3ccc(NC(=O)C4CC4)cc3)n2)n[nH]1 [Tozasertib] (partner 0.1 µM)
Procedure, shortened: as §1

[2] = compound: C1/C(=C\C2=CC=CS2)/C(=O)/C(=C/C3=CC=CS3)/C1 + N=C(N)NC(=N)NCCc1ccccc1 [Phenformin] (partner 250 µM)
Procedure, shortened: as §1

TPCA-1 + Crizotinib = compound: C1=CC(=CC=C1C2=CC(=C(S2)NC(=O)N)C(=O)N)F [TPCA-1] + C[C@@H](Oc1cc(-c2cnn(C3CCNCC3)c2)cnc1N)c1c(Cl)ccc(F)c1Cl [Crizotinib] (partner 1 µM)
Procedure, shortened: as §1

Cell Line	relative viability (TPCA-1 + Phenformin; first compound 0.04 µM)	relative viability (TPCA-1 + Phenformin; first compound 0.1265 µM)	relative viability (TPCA-1 + Phenformin; first compound 0.4 µM)	relative viability (TPCA-1 + Phenformin; first compound 1.265 µM)	relative viability (TPCA-1 + Phenformin; first compound 4 µM)	relative viability ([1]; first compound 0.005 µM)	relative viability ([1]; first compound 0.01581 µM)	relative viability ([1]; first compound 0.05 µM)	relative viability ([1]; first compound 0.1581 µM)	relative viability ([1]; first compound 0.5 µM)	relative viability ([2]; first compound 0.2 µM)	relative viability ([2]; first compound 0.6325 µM)	relative viability ([2]; first compound 2 µM)	relative viability ([2]; first compound 6.325 µM)	relative viability ([2]; first compound 20 µM)	relative viability (TPCA-1 + Crizotinib; first compound 0.04 µM)	relative viability (TPCA-1 + Crizotinib; first compound 0.1265 µM)	relative viability (TPCA-1 + Crizotinib; first compound 0.4 µM)	relative viability (TPCA-1 + Crizotinib; first compound 1.265 µM)	relative viability (TPCA-1 + Crizotinib; first compound 4 µM)
SK-MES-1	0.679	0.612	0.668	0.596	0.498	0.966	0.834	0.341	0.455	0.197	0.722	0.742	0.605	0.644	0.546	1	0.907	0.923	0.948	0.589
NCI-H2405	0.459	0.37	0.471	0.166	0.38	0.797	0.814	0.78	0.511	0.271	0.404	0.386	0.441	0.413	0.402	0.908	0.773	0.797	0.547	0.905
LCLC-103H	0.335	0.321	0.345	0.332	0.357	0.526	0.595	0.384	0.424	0.209	0.326	0.329	0.361	0.288	0.356	1.12	1.03	0.96	1.03	1.03
NCI-H460	0.607	0.523	0.53	0.502	0.336	0.519	0.478	0.524	0.986	0.303	0.543	0.568	0.519	0.344	0.522	0.911	0.919	0.889	0.883	0.298
NCI-H1755	0.665	0.553	0.6	0.503	0.427	0.607	0.693	0.589	0.461	0.372	0.636	0.642	0.63	0.505	0.61	0.83	0.772	0.922	0.831	0.48
NCI-H358	0.359	0.287	0.379	0.333	0.206	0.103	0.0848	0.0849	0.0845	0.0896	0.358	0.303	0.428	–	0.281	0.759	0.559	0.541	0.39	0.264
NCI-H1734	0.42	0.363	0.42	0.391	0.287	0.289	0.153	0.247	0.214	0.178	0.415	0.403	0.443	0.363	0.412	0.706	0.584	0.704	0.642	0.575
EPLC-272H	0.343	0.391	0.292	0.289	0.272	0.297	0.282	0.322	0.231	0.128	0.289	0.318	0.298	0.238	0.276	1.02	0.93	0.868	0.888	0.58
NCI-H2126	0.561	0.499	0.53	0.537	0.44	0.919	0.963	0.802	0.699	0.48	0.549	0.551	0.566	0.483	0.536	1.08	0.93	1.07	0.945	0.951

Source: the supplement of paper PMC10307832
